Assay results from patent US20070093455A1, “10-substituted tetracyclines and methods of use thereof” (priority 2005, published 2007).
Converted amounts (≈) assume the structure as drawn.

How the values were obtained:
S. aureus RN450 = assay: In vitro MIC assay, S. aureus RN450; assay type: cell-based; conditions: Staphylococcus aureus, broth microdilution, 35° C., 18-24 hours
S. aureus MRSA5 = assay: In vitro MIC assay, S. aureus MRSA5; assay type: cell-based; conditions: Staphylococcus aureus, broth microdilution, 35° C., 18-24 hours
S. aureus RN4250 = assay: In vitro MIC assay, S. aureus RN4250; assay type: cell-based; conditions: Staphylococcus aureus, broth microdilution, 35° C., 18-24 hours
S. pneumoniae 157E = assay: In vitro MIC assay, S. pneumoniae 157E; assay type: cell-based; conditions: Streptococcus pneumoniae, broth supplemented with lysed horse blood, 35° C., 18-24 hours
E. coli (ATCC 25922) = assay: In vitro MIC assay, E. coli (ATCC 25922); assay type: cell-based; conditions: Escherichia coli, ATCC25922; broth microdilution, 35° C., 18-24 hours
E. coli MG 1655 DWAK = assay: In vitro MIC assay, E. coli MG 1655 DWAK; assay type: cell-based; conditions: Escherichia coli, MG1655DWAK; broth microdilution, 35° C., 18-24 hours
Procedure: The following assay was used to determine the efficacy of tetracycline compounds against common bacteria. Serial dilutions of compounds were prepared in microdilution plates using a Tecan robotic workstation. Mueller Hinton broth cultures of gram negative and gram positive strains were grown or adjusted to match the turbidity of a 0.5 McFarland standard. 1:200 dilutions were made in appropriate broth (cation supplemented Mueller Hinton broth or Haemophilus test medium) to allow a final inoculum of 1×10^5 cfu. Lysed horse blood was used to supplement broth for testing S. pneumoniae. The plates were incubated at 35° C. in ambient air for 18-24 hours, read spectrophotometrically, and checked manually for evidence of bacterial growth. Serial dilutions of compounds were also added to Brucella agar supplemented with laked sheep blood for P. acnes tests. A standard inoculum was transferred to the plate using a stainless steel replicator. After 48 hours of anaerobic incubation at 35° C. plates were examined. The MIC was defined as the lowest concentration of the tetracycline compound that inhibits growth. Table 3 gives the MIC (μg/mL) of selected substituted tetracycline compounds against a variety of gram positive and gram negative bacteria.

P. aeruginosa K1033 = assay: In vitro MIC assay, P. aeruginosa K1033; assay type: cell-based; conditions: Pseudomonas aeruginosa, broth microdilution, 35° C., 18-24 hours
[1] = system: H. influenza (ATCC 49247); assay: In vitro MIC assay, H. influenza (ATCC 49247); assay type: cell-based; conditions: read-out: MIC H. influenza (ATCC 49247)
B. fragilis (ATCC 25285) = assay: In vitro MIC assay, B. fragilis (ATCC 25285); assay type: cell-based; conditions: Bacteroides fragilis, ATCC25285
[2] = system: B. theraiotaomicron (ATCC 29741); assay: In vitro MIC assay, B. theraiotaomicron (ATCC 29741); assay type: cell-based
P. acnes (ATCC 6919) = assay: In vitro MIC assay, P. acnes (ATCC 6919); assay type: cell-based; conditions: Cutibacterium acnes, ATCC6919; Brucella agar with laked sheep blood, 48 hours anaerobic, 35° C.
P. acnes (ATCC 11827) = assay: In vitro MIC assay, P. acnes (ATCC 11827); assay type: cell-based; conditions: Cutibacterium acnes, ATCC11827; Brucella agar with laked sheep blood, 48 hours anaerobic, 35° C.
P. acnes (PBS 1073) = assay: In vitro MIC assay, P. acnes (PBS 1073); assay type: cell-based; conditions: Cutibacterium acnes; Brucella agar with laked sheep blood, 48 hours anaerobic, 35° C.
P. acnes (PBS 1074) = assay: In vitro MIC assay, P. acnes (PBS 1074); assay type: cell-based; conditions: Cutibacterium acnes; Brucella agar with laked sheep blood, 48 hours anaerobic, 35° C.
P. acnes (ATCC 1077) = assay: In vitro MIC assay, P. acnes (ATCC 1077); assay type: cell-based; conditions: Cutibacterium acnes, ATCC1077; Brucella agar with laked sheep blood, 48 hours anaerobic, 35° C.
COS-1 or CHO cell = assay: Mammalian cell cytotoxicity assay (Resazurin; Alamar Blue); assay type: cell-based; conditions: COS-1 or CHO cells, 24 hour incubation
Procedure: To predict the in vivo risks associated with the compounds of the invention, a soluble, non-toxic redox dye (“Resazurin”; Alamar Blue) was used to assess a compound's effect on cellular metabolism. COS-1 or CHO cell suspensions were prepared, seeded into 96-well black-walled microtiter plates, and incubated overnight at 37° C., in 5% CO2 and approximately 95% humidity. On the next day, serial dilutions of test drug were prepared and transferred to cell plates. Following a 24 hour incubation period, the media/drug was aspirated, and 50 μL of resazurin was added. After a 2 hour incubation, fluorescence measurements were taken (excitation […], emission 590 nm) and toxic effects in treated versus control cells were compared based on the degree of fluorescence in each well.

E. coli translation = assay: In vitro translation assay for inhibition of bacterial protein synthesis (E. coli S30 Extract System, luciferase); assay type: biochemical; conditions: 37° C., 1 hour, luciferase luminescence
Procedure: As a further measure of antibacterial activity, an E. coli S30 Extract System was used to quantitate inhibition of E. coli translation by tetracycline derivatives. This system contained all required components for translation, including a nucleic acid template which, when translated, produces functional luciferase. The reactions were set up with E. coli S30 extract, amino acids, DNA template and selected tetracycline compounds at concentrations of 100, 50, 25, 10, 5, and 1 μg/ml. The reactions were incubated at 37° C. for 1 hour and analyzed by adding the reaction mix to Steady-Glo Luciferase Assay substrate (Promega, Madison Wis.). Luminescence was measured with the Wallac Victor5 plate reader and inhibition is calculated by comparing luciferase activity in experimental reactions versus controls.

[3] = system: Mouse 3T3 fibroblast cells; assay: Phototoxicity assay (neutral red); assay type: cell-based; conditions: 3T3 cells; for phototoxicity at 30 μM, incubated in the UV light: UV light 1.6-1.8 mW/cm^2, 30 μM
Procedure: Mouse 3T3 fibroblast cells were harvested and plated at a concentration of 1×10^5 cells/mL. Drug dilutions were made in HBSS and added to the plates. Duplicate plates were then incubated in the dark (for controls), or under UV light (meter reading of 1.6-1.8 mW/cm^2) for 50 minutes. Cells were then washed with HBSS, fresh medium was added, and plates were then incubated overnight. The following day, neutral red was added as an indicator of cell viability and plates were incubated for an additional 3 hours. Cells were then washed with HBSS and a solution of 50% EtOH, 10% glacial acetic acid is added. After a 20 minute incubation period, plates absorbance at 535 nm were read using a Wallac Victor 5 spectrophotometer. The phototoxicity in light-treated and control cultures was then compared.

Structure (SMILES) | MIC (S. aureus RN450) [µg/mL] | MIC (S. aureus MRSA5) [µg/mL] | MIC (S. aureus RN4250) [µg/mL] | MIC (S. pneumoniae 157E) [µg/mL] | MIC (E. coli (ATCC 25922)) [µg/mL] | MIC (E. coli MG 1655 DWAK) [µg/mL] | MIC (P. aeruginosa K1033) [µg/mL] | MIC [1] [µg/mL] | MIC (B. fragilis (ATCC 25285)) [µg/mL] | MIC [2] [µg/mL] | MIC (P. acnes (ATCC 6919)) [µg/mL] | MIC (P. acnes (ATCC 11827)) [µg/mL] | MIC (P. acnes (PBS 1073)) [µg/mL] | MIC (P. acnes (PBS 1074)) [µg/mL] | MIC (P. acnes (ATCC 1077)) [µg/mL] | cytotoxicity at 75 μg/mL (COS-1 or CHO cell) | IC20 (E. coli translation) [µM] | IC50 (E. coli translation) [µM] | phototoxicity at 30 μM, incubated in the UV light [3] | phototoxicity at 150 μM, incubated in the dark ([3]; incubated in the dark, 150 μM)
CC1CCN(Cc2cccc3c2CC2CC4[C@@H](N(C)C)C(O)=C(C(N)=O)C(=O)[C@@]4(O)C(O)=C2C3=O)CC1 (some centres unmarked) [K] | 0 to 21 | 0 to 21 | 0 to 21 | 0 to 21 | 0 to 21 | 0 to 21 | 0 to 21 | 0 to 21 | 0 to 8 | 28 to 32 (≈ 54.9 to 62.8 µM) | 0 to 8 | 0 to 8 | 28 to 32 (≈ 54.9 to 62.8 µM) | 28 to 32 (≈ 54.9 to 62.8 µM) | 28 to 32 (≈ 54.9 to 62.8 µM) | minimal cytotoxicity |  |  |  | 
CN(C)[C@H]1C(O)=C(C(N)=O)C(=O)[C@@]2(O)C(O)=C3C(=O)c4cccc(-c5ncccn5)c4CC3CC12 (some centres unmarked) [L] | 0 to 21 | 0 to 21 | 0 to 21 | 0 to 21 | 22 to 43 (≈ 46.2 to 90.2 µM) | 0 to 21 | 0 to 21 | 44 to 64 (≈ 92.3 to 134 µM) | 0 to 8 | 28 to 32 (≈ 58.8 to 67.2 µM) | 0 to 8 | 0 to 8 | 28 to 32 (≈ 58.8 to 67.2 µM) | 28 to 32 (≈ 58.8 to 67.2 µM) | 28 to 32 (≈ 58.8 to 67.2 µM) | minimal cytotoxicity |  |  |  | 
CC1CCN(c2cccc3c2C(=O)C2=C(O)[C@]4(O)C(=O)C(C(N)=O)=C(O)[C@@H](N(C)C)C4CC2C3)CC1 (some centres unmarked) [M] | 44 to 64 (≈ 88.8 to 129 µM) | 44 to 64 (≈ 88.8 to 129 µM) | 44 to 64 (≈ 88.8 to 129 µM) | 22 to 43 (≈ 44.4 to 86.8 µM) | 44 to 64 (≈ 88.8 to 129 µM) | 0 to 21 | 0 to 21 | 0 to 21 |  |  |  |  |  |  |  | minimal cytotoxicity | < 100 | < 100 | minimally phototoxic | not to be appreciably phototoxic
CC(=O)c1cccc2c1C(=O)C1=C(O)[C@]3(O)C(=O)C(C(N)=O)=C(O)[C@@H](N(C)C)C3CC1C2 (some centres unmarked) [N] | 22 to 43 (≈ 49.9 to 97.6 µM) | 44 to 64 (≈ 99.9 to 145 µM) | 44 to 64 (≈ 99.9 to 145 µM) | 44 to 64 (≈ 99.9 to 145 µM) | 44 to 64 (≈ 99.9 to 145 µM) | 0 to 21 | 0 to 21 | 44 to 64 (≈ 99.9 to 145 µM) |  |  |  |  |  |  |  | minimal cytotoxicity | < 100 | < 100 |  | 
CN(C)[C@@H]1C(O)=C(C(N)=O)C(=O)[C@@]2(O)C(O)=C3C(=O)c4c(cccc4OS(=O)(=O)C(F)(F)F)CC3CC12 (some centres unmarked) [O] | 22 to 43 (≈ 40.3 to 78.7 µM) | 22 to 43 (≈ 40.3 to 78.7 µM) | 22 to 43 (≈ 40.3 to 78.7 µM) | 44 to 64 (≈ 80.5 to 117 µM) | 44 to 64 (≈ 80.5 to 117 µM) | 0 to 21 | 0 to 21 | 44 to 64 (≈ 80.5 to 117 µM) |  |  |  |  |  |  |  |  | < 100 | < 100 |  | 
CN(C)c1cc2c(c3c1CC1CC4[C@H](N(C)C)C(O)=C(C(N)=O)C(=O)[C@@]4(O)C(O)=C1C3=O)OC(=O)N(CC(C)(C)C)C2 (some centres unmarked) [P] | 44 to 64 (≈ 75.5 to 110 µM) | 44 to 64 (≈ 75.5 to 110 µM) | 44 to 64 (≈ 75.5 to 110 µM) | 44 to 64 (≈ 75.5 to 110 µM) |  |  |  | 44 to 64 (≈ 75.5 to 110 µM) |  |  |  |  |  |  |  | minimal cytotoxicity |  |  | minimally phototoxic | 
CN(C)c1cc2cc(-c3ccc(N)cc3)oc2c2c1CC1CC3[C@H](N(C)C)C(O)=C(C(N)=O)C(=O)[C@@]3(O)C(O)=C1C2=O (some centres unmarked) [Q] | 0 to 21 | 0 to 21 | 0 to 21 | 22 to 43 (≈ 38.4 to 75.1 µM) |  |  |  | 44 to 64 (≈ 76.8 to 112 µM) |  |  |  |  |  |  |  |  | < 100 | < 100 |  | 
